The test addresses Voltage-gated inwardly rectifying potassium channel KCNH2 (Homo sapiens) (UniProt Q12809). Description: hERG channel inhibition, SAR follow-up, selectivity assay for KCNK9 inhibitor project, FluxOR Tl flux, hERG cells, CRC 2 (AID 540323). Particulars: hERG-expressing cells, FluxOR thallium flux fluorescence, test wells contain dofetilide at its IC70; for fluorescence ratio, lower = inhibition: at 30 µM (top of the series). A general note: Block of hERG is tested as a sign of cardiac risk.

Calls of active or inactive are those of the source.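 Rule for the calls: active = peak hERG channel inhibition above 30% at some tested dose, together with a fitted dose response curve; inactive = no hERG inhibition at any dose, or no curve.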

As usually defined, the IC50 is the midpoint of a concentration-inhibition curve.

Sequence of Voltage-gated inwardly rectifying potassium channel KCNH2 (Homo sapiens) (Q12809 whole entry, looked up): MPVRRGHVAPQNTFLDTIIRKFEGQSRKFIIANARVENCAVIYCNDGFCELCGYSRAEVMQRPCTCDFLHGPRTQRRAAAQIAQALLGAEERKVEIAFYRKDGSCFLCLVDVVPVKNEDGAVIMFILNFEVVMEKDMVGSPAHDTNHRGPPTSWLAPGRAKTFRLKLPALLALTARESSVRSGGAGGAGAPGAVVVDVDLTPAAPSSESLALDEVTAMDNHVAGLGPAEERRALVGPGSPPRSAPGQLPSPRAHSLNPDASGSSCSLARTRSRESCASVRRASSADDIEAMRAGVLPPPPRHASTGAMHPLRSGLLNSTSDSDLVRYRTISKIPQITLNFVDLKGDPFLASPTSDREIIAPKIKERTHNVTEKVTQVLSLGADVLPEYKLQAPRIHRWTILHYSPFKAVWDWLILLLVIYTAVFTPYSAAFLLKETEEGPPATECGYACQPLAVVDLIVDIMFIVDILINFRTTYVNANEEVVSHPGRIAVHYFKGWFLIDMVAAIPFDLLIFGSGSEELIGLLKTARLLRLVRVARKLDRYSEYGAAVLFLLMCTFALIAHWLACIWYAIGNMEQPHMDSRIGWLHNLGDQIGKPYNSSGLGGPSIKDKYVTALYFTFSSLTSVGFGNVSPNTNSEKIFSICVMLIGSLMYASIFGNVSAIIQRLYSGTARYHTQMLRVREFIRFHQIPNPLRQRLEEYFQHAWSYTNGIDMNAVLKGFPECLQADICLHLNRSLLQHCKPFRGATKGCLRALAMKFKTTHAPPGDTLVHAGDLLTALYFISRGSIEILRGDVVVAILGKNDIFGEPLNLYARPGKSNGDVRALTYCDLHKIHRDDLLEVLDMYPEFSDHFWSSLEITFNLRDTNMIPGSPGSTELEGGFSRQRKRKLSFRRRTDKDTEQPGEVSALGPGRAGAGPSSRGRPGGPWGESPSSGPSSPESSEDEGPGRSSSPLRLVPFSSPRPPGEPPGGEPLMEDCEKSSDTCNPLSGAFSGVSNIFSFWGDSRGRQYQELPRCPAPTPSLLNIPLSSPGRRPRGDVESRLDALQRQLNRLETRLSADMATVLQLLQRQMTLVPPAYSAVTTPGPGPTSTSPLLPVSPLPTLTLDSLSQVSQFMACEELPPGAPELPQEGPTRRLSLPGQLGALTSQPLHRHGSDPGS

Consider `COc1ccccc1C(=O)Nc1cccc(NC(=O)c2ccccc2OC(F)(F)F)c1`, for which the “fluorescence ratio, lower = inhibition” value was “inactive”.
On the same count and under the same terms, the value for `COc1ccccc1C(=O)Nc1cccc(NC(=O)c2ccccc2)c1` was “inactive”.
On to `Cc1cccc(C(=O)Nc2cccc(NC(=O)c3ccccc3)c2)c1`, for which the concentration for half-maximal inhibition (IC50) is 8.08 µM.
As to `CCOc1ccccc1NC(=O)c1cccc(NC(=O)CC2CCCCC2)c1`, the “fluorescence ratio, lower = inhibition” value was “inactive”.
Still for that read-out and setting: the value for `Cc1cccc(C(=O)Nc2cccc(NC(=O)c3cccs3)c2)c1` was “inactive”.
On to `O=C(Nc1cccc(NC(=O)c2ccncc2)c1)c1ccccc1`, for which the “fluorescence ratio, lower = inhibition” value was “inactive”.
Consider `CC(C1CC2CCC1C2)n1c(-c2ccco2)n[nH]c1=S` (centres undefined), for which the “fluorescence ratio, lower = inhibition” value was “inactive”.
As for `CCOc1ccccc1C(=O)Nc1cccc(NC(=O)c2ccccc2C(F)(F)F)c1`, the “fluorescence ratio, lower = inhibition” value was “inactive”.
For the compound `CC(C1CC2CCC1C2)n1c(-c2ccc(Cl)cc2)n[nH]c1=S` (centres undefined), the “fluorescence ratio, lower = inhibition” value was “inactive”.
With `COc1cccc(-c2n[nH]c(=S)n2C(C)C2CC3CCC2C3)c1` (centres undefined), the “fluorescence ratio, lower = inhibition” value was “inactive”.
Take `COc1cccc(OC)c1C(=O)Nc1cccc(NC(=O)c2cccc(C)c2)c1`: the “fluorescence ratio, lower = inhibition” value is “inactive”.
For `Cc1cccc(C(=O)Nc2cccc(NC(=O)c3ccccc3Cl)c2)c1`, the “fluorescence ratio, lower = inhibition” value was “inactive”.
Take `Cc1cccc(C(=O)Nc2cccc(NC(=O)c3ccc(N(C)C)cc3)c2)c1`: the “fluorescence ratio, lower = inhibition” value is “inactive”.
Turning to `COc1ccccc1NC(=O)c1cccc(NC(=O)CC2CCCC2)c1`, the “fluorescence ratio, lower = inhibition” value is “inactive”.
In the case of `O=C(Nc1cccc(NC(=O)c2ccoc2)c1)c1ccccc1`, the “fluorescence ratio, lower = inhibition” value is “inactive”.
The same measure, in the same setting: the same measure for `O=C(Nc1cccc(NC(=O)c2ccccn2)c1)c1ccccc1`: “inactive”.
For `CCOc1ccccc1NC(=O)c1cccc(NC(=O)C2CC2)c1`, the “fluorescence ratio, lower = inhibition” value was “inactive”.
Turning to `S=c1[nH]nc(-c2ccco2)n1CC1CCCCC1`, the “fluorescence ratio, lower = inhibition” value is “inactive”.
With `CCOc1ccccc1NC(=O)c1cccc(NC(=O)c2cccc(C)c2)c1`, the “fluorescence ratio, lower = inhibition” value is “inactive”.
Regarding `Cc1cccc(C(=O)Nc2cccc(NC(=O)c3ccc(Cl)cc3)c2)c1`, the “fluorescence ratio, lower = inhibition” value is “inactive”.
For the compound `Cc1cccc(C(=O)Nc2cccc(NC(=O)c3cccc(C)c3)c2)c1`, the IC50 was 12.4 µM.
For `CC(C1CC2CCC1C2)n1c(-c2ccoc2)n[nH]c1=S` (centres undefined), the “fluorescence ratio, lower = inhibition” value is “inactive”.
On the same count and under the same terms, the value for `O=C(Nc1cccc(NC(=O)c2ccc(F)cc2)c1)c1ccccc1` was “inactive”; that for `O=C(Nc1cccc(NC(=O)c2cccs2)c1)c1ccccc1` was “inactive”.
For `O=C(Nc1cccc(NC(=O)c2ccccc2Cl)c1)c1ccccc1`, the “fluorescence ratio, lower = inhibition” value was “inactive”.
Still for that read-out and setting: the value for `CC(C1CC2CCC1C2)n1c(-c2ccccc2Cl)n[nH]c1=S` (centres undefined) was “inactive”.
The same measure, in the same setting: the same measure for `CCOc1ccccc1NC(=O)c1cccc(NC(=O)c2ccccc2OC(F)(F)F)c1`: “inactive”.
As to `CC(C)(C)c1ccc(C(=O)Nc2cccc(NC(=O)c3ccccc3)c2)cc1`, the “fluorescence ratio, lower = inhibition” value was “inactive”.
Still for that read-out and setting: the value for `CCOc1ccccc1NC(=O)c1cccc(C(=O)NC2CCCC2)c1` was “inactive”; that for `CCOc1ccccc1NC(=O)c1cccc(NC(=O)CC2CCCC2)c1` was “inactive”; that for `CCOc1ccccc1NC(=O)c1cccc(NC(=O)C2CCCO2)c1` (centres undefined) was “inactive”.
Still for that read-out and setting: the same measure for `O=C(Nc1cccc(NC(=O)c2cccc(F)c2)c1)c1ccccc1`: “inactive”; for `Cc1ccc(C(=O)Nc2cccc(NC(=O)c3ccccc3)c2)cc1`: “inactive”; for `Cc1cccc(C(=O)Nc2cccc(NC(=O)c3ccccc3C)c2)c1`: “inactive”.
The same measure, in the same setting: the same measure for `CC(C1CC2CCC1C2)n1c(C2CCOC2)n[nH]c1=S` (centres undefined): “inactive”; for `CCOc1ccccc1NC(=O)c1cccc(NC(=O)c2ccccc2)c1`: “inactive”; for `CCOc1ccccc1NC(=O)c1cccc(NC(=O)c2ccccc2C(F)(F)F)c1`: “inactive”.
With `CC(C)n1c(-c2ccco2)n[nH]c1=S`, the “fluorescence ratio, lower = inhibition” value is “inactive”.
Same read-out and setting: the same measure for `CC(c1ccccc1)n1c(-c2ccco2)n[nH]c1=S` (centres undefined): “inactive”.
The same measure, in the same setting: the same measure for `CCOc1ccccc1NC(=O)c1cccc(NC(=O)c2cccc(Cl)c2)c1`: “inactive”.
Still for that read-out and setting: the value for `COc1ccccc1NC(=O)c1cccc(NC(=O)c2ccccc2)c1` was “inactive”; that for `O=C(Nc1cccc(NC(=O)c2ccc(C(F)(F)F)cc2)c1)c1ccccc1` was “inactive”; that for `CCOc1ccccc1C(=O)Nc1cccc(NC(=O)C2CCCC2)c1` was “inactive”.
As to `Cc1cccc(C(=O)Nc2cccc(NC(=O)c3cccc(C(F)(F)F)c3)c2)c1`, the “fluorescence ratio, lower = inhibition” value is “inactive”.
On to `Cc1cccc(C(=O)Nc2ccccc2NC(=O)c2ccccc2)c1`, for which the “fluorescence ratio, lower = inhibition” value is “inactive”.
Same read-out and setting: the value for `CCOc1ccccc1NC(=O)c1cccc(NC(=O)C(C)(C)C)c1` was “inactive”.
Take `COc1ccccc1C(=O)Nc1cccc(NC(=O)c2cccc(C)c2)c1`: the “fluorescence ratio, lower = inhibition” value was “inactive”.
Turning to `CC(C1CC2CCC1C2)n1c(-c2ccsc2)n[nH]c1=S` (centres undefined), the “fluorescence ratio, lower = inhibition” value is “inactive”.
`Cc1cccc(C(=O)Nc2cccc(NC(=O)c3ccco3)c2)c1`: the “fluorescence ratio, lower = inhibition” value was “inactive”.
`Cc1cccc(C(=O)Nc2cccc(NC(=O)c3ccccc3OCC(C)C)c2)c1`: the “fluorescence ratio, lower = inhibition” value was “inactive”.
The same measure, in the same setting: the value for `CCOc1ccccc1NC(=O)c1cccc(NC(=O)C2CCCC2)c1` was “inactive”; that for `COc1ccccc1NC(=O)c1cccc(NC(=O)c2ccccc2OC)c1` was “inactive”.
The same measure, in the same setting: the value for `O=C(Nc1cccc(NC(=O)c2ccsc2)c1)c1ccccc1` was “inactive”; that for `CCOc1ccccc1NC(=O)c1cccc(NC(=O)c2ccc(C(F)(F)F)cc2)c1` was “inactive”; that for `O=C(Nc1cccc(NC(=O)c2ccco2)c1)c1ccccc1` was “inactive”.
For the compound `CCOc1ccccc1NC(=O)c1cccc(NC(=O)c2ccccc2Cl)c1`, the “fluorescence ratio, lower = inhibition” value is “inactive”.
On the same count and under the same terms, the same measure for `COc1ccccc1-c1n[nH]c(=S)n1C(C)C1CC2CCC1C2` (centres undefined): “inactive”.
Same read-out and setting: the same measure for `CCOc1ccccc1NC(=O)c1cccc(NC(=O)c2ccc(Cl)cc2)c1`: “inactive”; for `Cc1cccc(C(=O)Nc2cccc(NC(=O)c3ccccc3C(C)C)c2)c1`: “inactive”; for `CCOc1ccccc1NC(=O)c1cccc(NC(=O)c2ccccc2C)c1`: “inactive”.
On the same count and under the same terms, the value for `CC(C1CC2CCC1C2)n1c(-c2cccc(Cl)c2)n[nH]c1=S` (centres undefined) was “inactive”; that for `CC(c1ccco1)n1c(-c2ccoc2)n[nH]c1=S` (centres undefined) was “inactive”.
Take `O=C(Nc1cccc(NC(=O)c2ccccc2C(F)(F)F)c1)c1ccccc1`: the “fluorescence ratio, lower = inhibition” value was “inactive”.
Take `Cc1ccccc1C(=O)Nc1cccc(NC(=O)c2ccccc2)c1`: the “fluorescence ratio, lower = inhibition” value was “inactive”.
As for `Cc1cccc(C(=O)Nc2cccc(NC(=O)C3CCCCC3)c2)c1`, the “fluorescence ratio, lower = inhibition” value is “inactive”.
As to `Cc1ccccc1-c1n[nH]c(=S)n1C(C)C1CC2CCC1C2` (centres undefined), the “fluorescence ratio, lower = inhibition” value was “inactive”.
The same measure, in the same setting: the same measure for `CCOc1ccccc1C(=O)Nc1cccc(NC(=O)c2cccc(C)c2)c1`: “inactive”; for `COc1cccc(C(=O)Nc2cccc(NC(=O)c3ccccc3)c2)c1`: “inactive”; for `COc1cccc(C(=O)Nc2cccc(NC(=O)c3cccc(C)c3)c2)c1`: “inactive”.
Still for that read-out and setting: the same measure for `CN(C)c1ccc(C(=O)Nc2cccc(NC(=O)c3ccccc3)c2)cc1`: “inactive”.
In the case of `O=C(Nc1cccc(NC(=O)c2cccc(C(F)(F)F)c2)c1)c1ccccc1`, the “fluorescence ratio, lower = inhibition” value is “inactive”.
On the same count and under the same terms, the same measure for `O=C(Nc1cccc(NC(=O)c2cccc(Cl)c2)c1)c1ccccc1`: “inactive”; for `COc1ccc(C(=O)Nc2cccc(NC(=O)c3cccc(C)c3)c2)cc1`: “inactive”; for `COc1ccccc1C(=O)Nc1cccc(NC(=O)c2ccccc2OC)c1`: “inactive”.
On the same count and under the same terms, the same measure for `CCOc1ccccc1C(=O)Nc1cccc(NC(=O)c2ccccc2OC)c1`: “inactive”.
For `CCOc1ccc(NC(=O)c2cccc(NC(=O)C3CCCC3)c2)cc1`, the “fluorescence ratio, lower = inhibition” value was “inactive”.
`COc1ccc(C(=O)Nc2cccc(NC(=O)c3ccccc3)c2)cc1`: the “fluorescence ratio, lower = inhibition” value is “inactive”.
Take `CCOc1ccccc1NC(=O)c1cccc(NC(=O)c2ccc(C)cc2)c1`: the “fluorescence ratio, lower = inhibition” value is “inactive”.
Turning to `O=C(Nc1cccc(NC(=O)c2cccnc2)c1)c1ccccc1`, the “fluorescence ratio, lower = inhibition” value is “inactive”.
The same measure, in the same setting: the value for `Cc1cccc(C(=O)Nc2cccc(NC(=O)c3ccccc3OC(F)(F)F)c2)c1` was “inactive”.
Consider `CC(C1CC2CCC1C2)n1c(-c2ccccc2)n[nH]c1=S` (centres undefined), for which the “fluorescence ratio, lower = inhibition” value is “inactive”.
The same measure, in the same setting: the same measure for `CCOc1ccccc1NC(=O)c1cccc(NC(=O)c2ccc(OC)cc2)c1`: “inactive”; for `O=C(Nc1cccc(NC(=O)c2ccccc2)c1)c1ccccc1`: “inactive”; for `CCOc1ccccc1NC(=O)c1cccc(NC(=O)C2CCCCC2)c1`: “inactive”.

These data come from PubChem BioAssay AID540323 (Johns Hopkins Ion Channel Center, 2011).
